How the values of series [1] were obtained: The pH lowering ability of glycolide in its crystalline form, obtained from Purac Ltd., Holland, was tested in plasma at 37° C. as a function of time, compared to that of lactide and citric acid (also in crystalline form). All three materials were taken such as to eventually yield equal molar amounts of carboxylic acid groups.
How the values of series [2] were obtained:
The same experiment was repeated by comparing the pH lowering kinetics of the same compounds, deposited onto a polymeric support in the form of weighed (240 mg), rectangular shaped pieces of non-woven (NW) tampon cloth (hereinafter referred to as “strips”) by evaporation from an acetone solution, substantially as described in WO 02/17981 and U.S. 2002/0045873 whose contents are hereby incorporated by reference in their entireties. The strips may be incorporated in a tampon. The strips were dipped in plasma at 37° C.
This is another data set of the same source.

In the case of `CC1OC(=O)C(C)OC1=O` (stereo not shown) [lactide], the “time in which degradation was completed” value in series [1] was “approximately 120 minutes”. Further, in series [2], the “change in degradation rate when deposited on strips” value is listed as “two-fold increase”.

For the compound `O=C(O)CC(O)(CC(=O)O)C(=O)O` [citric acid], the “degradation / acid release kinetics (in words)” value in series [1] is on record as “burst-like immediate release”. Besides, the “release behaviour on strips (in words)” value in series [2] (non-woven strips, plasma, 37° C. (FIG. 2)) is reported as “behaved as previously described”.

Consider `O=C1COC(=O)CO1` [glycolide], for which, in series [1], the “degradation / acid release kinetics (in words)” value is listed as “significantly faster than that of lactide” and the “time in which degradation was completed” value is listed as “approximately 40 minutes”. The “change in degradation rate when deposited on strips” value in series [2] is reported as “two-fold increase”.

The values are drawn from patent US7892218B2, “pH reducing formulation” (Rostam Ltd., priority 2004, dated 2011).
